Experimental findings from BindingDB's records for doi:10.7270/Q2ZP44JJ (Burnham Center For Chemical Genomics, 2009) are described below.

The target of this experiment is T1, Tyrosine-protein phosphatase non-receptor type 22 (Homo sapiens, UniProt Q9Y2R2).
T1 sequence (Q9Y2R2 whole entry): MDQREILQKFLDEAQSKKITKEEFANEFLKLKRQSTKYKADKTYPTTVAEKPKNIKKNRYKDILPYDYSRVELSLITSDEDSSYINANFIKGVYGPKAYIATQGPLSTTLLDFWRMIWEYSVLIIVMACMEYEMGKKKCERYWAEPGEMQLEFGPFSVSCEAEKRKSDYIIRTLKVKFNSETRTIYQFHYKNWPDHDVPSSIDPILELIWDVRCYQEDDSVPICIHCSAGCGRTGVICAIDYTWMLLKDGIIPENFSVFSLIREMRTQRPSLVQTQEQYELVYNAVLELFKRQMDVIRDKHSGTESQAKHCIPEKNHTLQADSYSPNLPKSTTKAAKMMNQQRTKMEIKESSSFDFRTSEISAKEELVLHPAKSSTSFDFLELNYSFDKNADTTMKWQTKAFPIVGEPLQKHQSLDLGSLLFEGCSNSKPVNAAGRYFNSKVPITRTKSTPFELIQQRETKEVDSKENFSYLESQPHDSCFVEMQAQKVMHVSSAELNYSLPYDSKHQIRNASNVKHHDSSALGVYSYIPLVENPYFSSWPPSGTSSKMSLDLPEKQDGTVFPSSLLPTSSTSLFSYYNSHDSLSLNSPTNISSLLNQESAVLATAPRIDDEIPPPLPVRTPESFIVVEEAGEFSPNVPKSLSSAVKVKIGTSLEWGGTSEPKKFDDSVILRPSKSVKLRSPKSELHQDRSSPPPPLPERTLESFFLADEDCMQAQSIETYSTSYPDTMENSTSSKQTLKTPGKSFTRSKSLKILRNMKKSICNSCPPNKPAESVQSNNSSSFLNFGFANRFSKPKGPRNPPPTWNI
The experiment can be described thus: PubChem AID 2140.

The compound `CCOc1ccc2nc(NC(=O)CSc3cc(O)c4c(C)c(C)sc4n3)sc2c1` [2-[(2,3-dimethyl-4-oxidanylidene-5H-thieno[2,3-b]pyridin-6-yl)sulfanyl]-N-(6-ethoxy-1,3-benzothiazol-2-yl)ethanamide] came in with an IC50 of 43.4 µM.
